Experimental findings from US9550989B2, “Rational design of microRNA-siRNA chimeras for multi-functional target suppression” (Washington University, priority 2013, dated 2017) are described below.

What all share (assay type): cell-based, human
In series [1] the test system is HeLa cells. The series can be described thus: Transwell migration assay. As to conditions: transwell migration; for promotion of cell motility as compared to the negative control: increase by %; for cell mobility on average as compared to the control: increased to % of control. The procedure:
(A) Transwell migration assays to assess changes in cell motility. (B) MTS assays to assess changes in cell proliferation.
(§1) FIG. 7 depicts images and graphs showing functional characterization of aiR-9 on cell motility and cell death. […] One representative microscope image from each assay is presented here. (B) Impact of aiR-9 on cell death. TP53 deficiency renders HCT116 cells resistance to cisplatin-induced cell death. HCT116 cells and HCT116 p53^−/− cells were treated with cisplatin (50 μM) and cell death was determined as sub-G1 population by flow cytometry analysis after DNA PI staining. Furthermore, HCT116 cells were transfected with negative control RNA, aiR-9-2 or miR-9 individually followed by cisplatin treatment, and then analyzed by flow cytometry for cell death with PI staining.
Cultured cells were resuspended and washed with PBS buffer. Fifty thousand cells in 100 μL serum-free medium were added to the upper chamber of each Transwell (24-well insert with 8 um pore size from Costar). The lower chamber was filled with 600 μL medium containing 10% bovine serum. Cells were incubated for 6 h and cells on top of the membrane were removed with a cotton-tipped swab. Cells that had migrated through the membrane were fixed and stained with Hema-3 (Fisher Scientific) for counting.

Series [2] concerns TP53. The series can be described thus: Real-time RT-PCR of target mRNA. To be noted: HeLa cells. The text has this:
FIG. 6 depicts sequences and a graph showing design and validation of aiRNA-9. (A) Sequences of three aiR-9 RNAs. […] The seed regions are underlined.

Series [3] concerns HCT116 cells. The series can be described thus: Flow cytometry of cisplatin-induced cell death (sub-G1, PI staining). To be noted: cisplatin 50 μM. On the procedure: as §1
HCT116 and HCT116 p53^−/− cells were cultured in DMEM with 10% FBS. Cisplatin, DNase-free RNase and Propidum Iodide (PI) were purchased from Sigma. After treatment with cisplatin (50 μM), all cells (both floating and attached) were collected, washed once with DPBS, and then fixed with 70% ethanol on ice for at least 30 minutes. Fixed cells were washed twice with DPBS and then stained with PI solution [PI (25 μg/ml) and DNase-free RNase (100 μg/ml) diluted in PBS] at room temperature for 1 hour avoiding light exposure. Data were acquired by BD Aris FACS and analyzed using Flowing Software 2 version 2.5.0 (Finland).

Take “aiR-9-2: aiRNA with miR-9 seed and TP53 siRNA homology, SEQ ID NO:11 UCUUUGGUUGGGGAGAGGAGC (listed as RNA, chemistry not given here)”: in series [1], the “promotion of cell motility as compared to the negative control” value worked out at 57% and the “cell mobility on average as compared to the control” value turned out to be 157%. Besides, in series [2], the “suppression of TP53 expression” value is given as “effectively suppress”. Also, in series [3], the “cisplatin-induced cell death (sub-G1 cell population)” value was “drastic suppression of cisplatin-induced cell death”.

Take “miR-9: natural miRNA, SEQ ID NO:9 UCUUUGGUUAUCUAGCUGUAUGA (listed as RNA, chemistry not given here) [reference compound]”: in series [1], the “promotion of cell motility as compared to the negative control” value is on record as 44% and the “cell mobility on average as compared to the control” value is 144%.
